Data reported in ChEMBL document CHEMBL3994642, “Design, synthesis and biological evaluation of 2-(4-phenylthiazol-2-yl) isoindoline-1,3-dione derivatives as anti-prostate cancer agents” (Bioorg Med Chem Lett, 2017).
Activity calls are given as the source filed them. No cut-off for these calls is given here.

How the values were obtained:
PC-3 = experiment: Antiproliferative activity against AR negative human PC3 cells after 48 hrs by MTT assay; assay type: functional, cell-based; conditions: PC-3, 48 h
[1] = Selectivity index, ratio of IC50 for mouse 3T3 cells to IC50 for AR T877A mutant in human LNCAP cells; assay type: functional
[2] = Selectivity ratio of IC50 for AR negative human PC3 cells to IC50 for AR T877A mutant in human LNCAP cells
[3] = system: Androgen receptor (Homo sapiens), P10275 [T878A]; experiment: Potency index, ratio of bicalutamide IC50 to compound IC50 for AR T877A mutant in human LNCAP cells assessed as inhibition of DHT-induced proliferation; assay type: cell-based
[4] = system: Androgen receptor (Homo sapiens), P10275 [T878A]; experiment: Potency index, ratio of R-bicalutamide IC50 to compound IC50 for AR T877A mutant in human LNCAP cells assessed as inhibition of DHT-induced proliferation; assay type: cell-based
[5] = system: Androgen receptor (Homo sapiens), P10275 [T878A]; experiment: Antagonist activity at AR T877A mutant in human LNCAP cells assessed as inhibition of DHT-induced c-Myc mRNA level at 1 uM after 24 hrs by SYBR Green dye based qPCR method; assay type: cell-based
[6] = system: Androgen receptor (Homo sapiens), P10275 [T878A]; experiment: Antagonist activity at AR T877A mutant in human LNCAP cells assessed as inhibition of DHT-induced TMPRSS2 mRNA level at 1 uM after 24 hrs by SYBR Green dye based qPCR method; assay type: cell-based
[7] = system: Androgen receptor (Homo sapiens), P10275 [T878A]; experiment: Antagonist activity at AR T877A mutant in human LNCAP cells assessed as inhibition of DHT-induced Cyclin D1 mRNA level at 1 uM after 24 hrs by SYBR Green dye based qPCR method; assay type: cell-based
[8] = system: Androgen receptor (Homo sapiens), P10275 [T878A]; experiment: Antagonist activity at AR T877A mutant in human LNCAP cells assessed as inhibition of DHT-induced PSA mRNA level at 1 uM after 24 hrs by SYBR Green dye based qPCR method; assay type: cell-based
[9] = target: T1, Estrogen receptor (Homo sapiens) (UniProt P03372); experiment: Activity at ER in human LNCAP cells assessed as inhibition of pS2 mRNA level at 5 uM after 24 hrs by SYBR Green dye based qPCR method; assay type: cell-based
T1 sequence (whole entry): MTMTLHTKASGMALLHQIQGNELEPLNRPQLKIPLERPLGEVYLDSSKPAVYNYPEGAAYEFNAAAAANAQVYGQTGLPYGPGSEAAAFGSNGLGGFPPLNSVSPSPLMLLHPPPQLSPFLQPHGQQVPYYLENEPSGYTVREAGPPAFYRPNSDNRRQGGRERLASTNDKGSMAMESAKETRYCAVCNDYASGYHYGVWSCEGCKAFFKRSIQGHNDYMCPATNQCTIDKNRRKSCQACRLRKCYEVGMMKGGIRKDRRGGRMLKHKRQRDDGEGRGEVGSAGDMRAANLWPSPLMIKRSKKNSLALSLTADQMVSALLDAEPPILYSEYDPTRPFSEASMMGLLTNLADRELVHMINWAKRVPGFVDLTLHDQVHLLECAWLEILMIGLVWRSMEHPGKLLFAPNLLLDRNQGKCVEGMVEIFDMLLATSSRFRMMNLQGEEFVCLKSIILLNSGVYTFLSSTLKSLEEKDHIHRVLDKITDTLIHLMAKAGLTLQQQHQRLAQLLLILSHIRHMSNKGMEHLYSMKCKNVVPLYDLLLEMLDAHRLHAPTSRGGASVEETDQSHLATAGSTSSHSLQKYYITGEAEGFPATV

Sequence of Androgen receptor (Homo sapiens), P10275 [T878A] (P10275 whole entry T878A): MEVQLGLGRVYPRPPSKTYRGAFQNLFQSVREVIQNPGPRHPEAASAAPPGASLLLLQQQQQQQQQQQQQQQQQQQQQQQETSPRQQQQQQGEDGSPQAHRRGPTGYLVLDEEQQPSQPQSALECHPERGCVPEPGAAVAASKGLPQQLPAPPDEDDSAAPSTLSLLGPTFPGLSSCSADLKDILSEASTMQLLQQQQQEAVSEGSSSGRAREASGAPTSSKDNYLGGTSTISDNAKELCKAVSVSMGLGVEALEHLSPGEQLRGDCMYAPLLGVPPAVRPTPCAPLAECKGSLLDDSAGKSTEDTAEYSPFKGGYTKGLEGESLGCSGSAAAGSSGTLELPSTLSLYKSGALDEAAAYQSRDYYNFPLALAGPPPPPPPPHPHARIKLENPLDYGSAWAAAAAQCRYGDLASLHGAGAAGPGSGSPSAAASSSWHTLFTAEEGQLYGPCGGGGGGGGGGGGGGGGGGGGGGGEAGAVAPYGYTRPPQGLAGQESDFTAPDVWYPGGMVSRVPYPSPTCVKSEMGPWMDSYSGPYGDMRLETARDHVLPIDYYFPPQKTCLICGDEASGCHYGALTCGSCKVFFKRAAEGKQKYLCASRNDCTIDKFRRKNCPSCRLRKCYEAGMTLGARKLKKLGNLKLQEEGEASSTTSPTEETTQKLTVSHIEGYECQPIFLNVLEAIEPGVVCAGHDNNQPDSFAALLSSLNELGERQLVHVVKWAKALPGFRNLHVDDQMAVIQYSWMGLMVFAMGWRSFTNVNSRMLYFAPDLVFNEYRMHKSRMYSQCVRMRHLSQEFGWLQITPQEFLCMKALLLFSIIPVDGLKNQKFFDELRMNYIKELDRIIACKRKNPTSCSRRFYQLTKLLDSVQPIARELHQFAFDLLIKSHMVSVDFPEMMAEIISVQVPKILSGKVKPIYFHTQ

| Compound | IC50 (PC-3) [µM] | Ratio IC50 [1] | Ratio IC50 [2] | also measured |
| --- | --- | --- | --- | --- |
| O=C1c2ccccc2C(=O)N1c1nc(-c2ccccc2)cs1 | 43.9 | 1.26 | 1.19 |  |
| Cc1ccc(-c2csc(N3C(=O)c4ccc(F)cc4C3=O)n2)cc1 | 44.4 | 1.51 | 1.71 |  |
| O=C1c2ccccc2C(=O)N1c1nc(-c2ccc([N+](=O)[O-])cc2)cs1 | 41.8 | 3.15 | 3.17 |  |
| O=C1c2ccc(F)cc2C(=O)N1c1nc(-c2ccc(Cl)cc2)cs1 | 38 | 1.59 | 1.35 |  |
| COc1ccc(-c2csc(N3C(=O)c4ccc(F)cc4C3=O)n2)cc1 | 41.3 | 5.04 | 5.05 |  |
| O=C1c2ccc(F)cc2C(=O)N1c1nc(-c2ccc(F)cc2)cs1 | 39.5 | 2.04 | 1.8 |  |
| O=C1c2ccc(F)cc2C(=O)N1c1nc(-c2ccccc2)cs1 | 40.2 | 1.9 | 1.17 |  |
| O=C1c2ccccc2C(=O)N1c1nc(-c2ccc(Cl)cc2)cs1 | 44.9 | 1.91 | 1.71 |  |
| O=C1c2ccc(F)cc2C(=O)N1c1nc(-c2ccc([N+](=O)[O-])cc2)cs1 | 39.9 | 4.69 | 5.12 |  |
| N#Cc1ccc(-c2csc(N3C(=O)c4ccc(F)cc4C3=O)n2)cc1 | 43.1 | 7.09 | 7.23 | Ratio IC50 [3]: 7.4; Ratio IC50 [4]: 4.6; inhibition [5]: Active; inhibition [6]: Active; inhibition [7]: Active; inhibition [8]: Active; inhibition [9]: inactive |
| C[C@](O)(CS(=O)(=O)c1ccc(F)cc1)C(=O)Nc1ccc(C#N)c(C(F)(F)F)c1 [(R)-BICALUTAMIDE] | 59.8 |  |  |  |
| Cc1ccc(-c2csc(N3C(=O)c4ccccc4C3=O)n2)cc1 | 38.4 | 1.73 | 1.32 |  |
| N#Cc1ccc(-c2csc(N3C(=O)c4ccccc4C3=O)n2)cc1 | 40.3 | 3.57 | 3.67 |  |
| COc1ccc(-c2csc(N3C(=O)c4ccccc4C3=O)n2)cc1 | 42.9 | 3.29 | 3.14 |  |
| CC(O)(CS(=O)(=O)c1ccc(F)cc1)C(=O)Nc1ccc(C#N)c(C(F)(F)F)c1 (stereo unspecified) [BICALUTAMIDE] | 60.7 |  |  |  |
| O=C1c2ccccc2C(=O)N1c1nc(-c2ccc(F)cc2)cs1 | 37.2 | 1.36 | 1.3 |  |
